In US20160108039A1, “TRIAZOLOPYRIDINES AS THROMBIN INHIBITORS FOR THE TREATMENT OF THROMBOEMBOLIC DISEASES” (BAYER PHARMA AKTIENGESELLSCHAFT, priority 2013, published 2016):

Columns and labels:
[1] = target: T1, thrombin (Homo sapiens, UniProt P00734); experiment: Measurement of the thrombin inhibition in buffer; type: biochemical; settings: human thrombin 0.06 nmol/l in Tris buffer pH 7.4, 22° C., substrate Boc-Asp(OBzl)-Pro-Arg-AMC; in some cases means of individual determinations
Outline: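 Compound pre-incubated 15 min at 22° C with 0.06 nmol/l human thrombin in 50 mmol/l Tris, 100 mmol/l NaCl, 0.1% BSA, pH 7.4, then 5 μmol/l Boc-Asp(OBzl)-Pro-Arg-AMC added for 30 min. AMC fluorescence read at 360/460 nm against DMSO controls; IC50 from concentration–activity curves.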

[2] = target: T1, thrombin; experiment: Thrombin-inhibitory activity in plasma samples (ecarin-activated); type: biochemical; settings: citrate plasma, ecarin activation, fluorogenic thrombin substrate; read at about 70% of maximum signal (about 12 min); in some cases means
Outline: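 Citrate plasma prothrombin activated by ecarin (20 mU per reaction) in Ca2+-containing Hepes buffer with compound; unstimulated controls lacked ecarin. Thrombin activity followed with fluorogenic substrate (50 μmol/l final), ex 360/em 465 nm, read every minute over 20 minutes.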

| Compound | IC50 [1] [nM] | IC50 [2] [nM] |
| --- | --- | --- |
| COc1cc(C(=O)N2CC3CCN3C(=O)C2C)cn2nc(NCc3cccc(Cl)c3)nc12 (single isomer, unassigned) [Example 61, 4-({2-[(3-Chlorobenzyl)amino]-8-methoxy[1,2,4]triazolo[1,5-a]pyridin-6-yl}carbonyl)-3-methyl-1,4-diazabicyclo[4.2.0]octan-2-one] | 23 | 17 |
| COc1cc(C(=O)N2CC3(CC3)NC(=O)C2C)cn2nc(NCc3cccc(Cl)c3)nc12 (single isomer, unassigned) [Example 62, 7-({2-[(3-Chlorobenzyl)amino]-8-methoxy[1,2,4]triazolo[1,5-a]pyridin-6-yl}carbonyl)-6-methyl-4,7-diazaspiro[2.5]octan-5-one] | 17 | 39 |
| CCC1C(=O)NC(C)CN1C(=O)c1cc(OC)c2nc(NCc3cccc(Cl)c3)nn2c1 (single isomer, unassigned) [Example 63, 4-({2-[(3-Chlorobenzyl)amino]-8-methoxy[1,2,4]triazolo[1,5-a]pyridin-6-yl}carbonyl)-3-ethyl-6-methylpiperazin-2-one] | 9.8 | 24 |
| COc1cc(C(=O)N2CC(C)(C)OCC2C(C)(C)O)cn2nc(NCc3cccc(Cl)c3)nc12 (single isomer, unassigned) [Example 66, {2-[(3-Chlorobenzyl)amino]-8-methoxy[1,2,4]triazolo[1,5-a]pyridin-6-yl}[5-(2-hydroxypropan-2-yl)-2,2-dimethylmorpholin-4-yl]methanone] | 25 | 24 |
| COc1cc(C(=O)N2CC(C)(C)OCC2C2(O)CC2)cn2nc(NCc3cccc(Cl)c3)nc12 (single isomer, unassigned) [Example 67, {2-[(3-Chlorobenzyl)amino]-8-methoxy[1,2,4]triazolo[1,5-a]pyridin-6-yl}[5-(1-hydroxycyclopropyl)-2,2-dimethylmorpholin-4-yl]methanone] | 48 | 90 |
| COc1cc(C(=O)N2CC(C)(C)OCC2C(C)O)cn2nc(NCc3cccc(Cl)c3)nc12 (single isomer, unassigned) [Example 68, {2-[(3-Chlorobenzyl)amino]-8-methoxy[1,2,4]triazolo[1,5-a]pyridin-6-yl}[5-(1-hydroxyethyl)-2,2-dimethylmorpholin-4-yl]methanone] | 49 | 106 |
| CC[C@@H]1COC(C)(CCO)CN1C(=O)c1cc(OC)c2nc(NCc3cccc(Cl)c3)nn2c1 (single isomer, unassigned) [Example 70] | 6.1 | 35 |
| COCC1COC(C)(CCO)CN1C(=O)c1cc(OC)c2nc(NCc3cccc(Cl)c3)nn2c1 (single isomer, unassigned) [Example 72, {2-[(3-Chlorobenzyl)amino]-8-methoxy[1,2,4]triazolo[1,5-a]pyridin-6-yl}[2-(2-hydroxyethyl)-5-(methoxymethyl)-2-methylmorpholin-4-yl]methanone] | 13 | 34 |
| [2H]C([2H])(C)O[C@@H]1CC(CO)N(C(=O)c2cc(OC)c3nc(NCc4cccc(Cl)c4)nn3c2)C1 (single isomer, unassigned) [Example 74] | 19 | 19 |
| COc1cc(C(=O)N2C[C@H](OCC(F)F)CC2CO)cn2nc(NCc3cccc(Cl)c3)nc12 (single isomer, unassigned) [Example 75] | 23 | 74 |
| COc1cc(C(=O)N2CC3CCN3C(=O)C2C)cn2nc(NC(CF)c3cccc(Cl)c3)nc12 (single isomer, unassigned) [Example 77, 4-[(2-{[1-(3-Chlorophenyl)-2-fluoroethyl]amino}-8-methoxy[1,2,4]triazolo[1,5-a]pyridin-6-yl)carbonyl]-3-methyl-1,4-diazabicyclo[4.2.0]octan-2-one] | 6.4 | 5.9 |
| COc1cc(C(=O)N2CC(C)OCC2C2CC(O)C2)cn2nc(NCc3cccc(Cl)c3)nc12 (stereo not shown) [Example 2, {2-[(3-Chlorobenzyl)amino]-8-methoxy[1,2,4]triazolo[1,5-a]pyridin-6-yl}[5-(3-hydroxycyclobutyl)-2-methylmorpholin-4-yl]methanone] | 19 | 20 |
| COc1cc(C(=O)N2CC(C)(C)OC[C@H]2CCO)cn2nc(NCc3cccc(Cl)c3)nc12 [Example 7, {2-[(3-Chlorobenzyl)amino]-8-methoxy[1,2,4]triazolo[1,5-a]pyridin-6-yl}[(5R)-5-(2-hydroxyethyl)-2,2-dimethylmorpholin-4-yl]methanone] | 20 | 24 |
| COc1cc(C(=O)N2CC(C)(C)OCC2CC(C)O)cn2nc(NCc3cccc(Cl)c3)nc12 (stereo not shown) [Example 45, {2-[(3-Chlorobenzyl)amino]-8-methoxy[1,2,4]triazolo[1,5-a]pyridin-6-yl}[5-(2-hydroxypropyl)-2,2-dimethylmorpholin-4-yl]methanone] | 33 | 34 |
| COc1cc(C(=O)N2CC(C)(CCO)OCC2CF)cn2nc(NCc3cccc(Cl)c3)nc12 (stereo not shown) [Example 50, {2-[(3-Chlorobenzyl)amino]-8-methoxy[1,2,4]triazolo[1,5-a]pyridin-6-yl}[5-(fluoromethyl)-2-(2-hydroxyethyl)-2-methylmorpholin-4-yl]methanone] | 18 | 122 |
| CCC1C(=O)N2CCC2CN1C(=O)c1cc(OC)c2nc(NCc3cccc(Cl)c3)nn2c1 (stereo not shown) [Example 58, 4-({2-[(3-Chlorobenzyl)amino]-8-methoxy[1,2,4]triazolo[1,5-a]pyridin-6-yl}carbonyl)-3-ethyl-1,4-diazabicyclo[4.2.0]octan-2-one] | 36 | 39 |
| COc1cc(C(=O)N2CC(C)CCC2CCO)cn2nc(NCc3cccc(Cl)c3)nc12 (stereo not shown) [Example 64, {2-[(3-Chlorobenzyl)amino]-8-methoxy[1,2,4]triazolo[1,5-a]pyridin-6-yl}[2-(2-hydroxyethyl)-5-methylpiperidin-1-yl]methanone] | 25 | 63 |
| COc1cc(C(=O)N2CC(C)CCC2C(N)=O)cn2nc(NCc3cccc(Cl)c3)nc12 (stereo not shown) [Example 65, 1-({2-[(3-Chlorobenzyl)amino]-8-methoxy[1,2,4]triazolo[1,5-a]pyridin-6-yl}carbonyl)-5-methylpiperidine-2-carboxamide] | 8.9 | 102 |
| CC[C@@H]1COC(C)(CCO)CN1C(=O)c1cc(OC)c2nc(NCc3cccc(Cl)c3)nn2c1 (stereo partly drawn) [Example 69, {2-[(3-Chlorobenzyl)amino]-8-methoxy[1,2,4]triazolo[1,5-a]pyridin-6-yl}[(5R)-5-ethyl-2-(2-hydroxyethyl)-2-methylmorpholin-4-yl]methanone] | 25 | 39 |
| COCC1COC(C)(CCO)CN1C(=O)c1cc(OC)c2nc(NCc3cccc(Cl)c3)nn2c1 (stereo not shown) [Example 71, {2-[(3-Chlorobenzyl)amino]-8-methoxy[1,2,4]triazolo[1,5-a]pyridin-6-yl}[2-(2-hydroxyethyl)-5-(methoxymethyl)-2-methylmorpholin-4-yl]methanone] | 35 | 87 |
